# From US20230263822A1, “MODULATION OF FACTOR 11 EXPRESSION” (Ionis Pharmaceuticals, Inc., priority 2008, published 2023)
# Experiment: Hematology assays in cynomolgus monkeys (Example 45)
# Format: in vivo
# Conditions: for MCH / MCHC / MCV / RBC count / WBC count / hematocrit / hemoglobin: escalating dose regimen
# Summary of the method: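 Cynomolgus monkeys (2 male, 3 female per group) dosed subcutaneously with antisense oligonucleotide or PBS, escalating 5, 10, then 25 mg/kg two to three times weekly over 12 weeks; one chronic group held at 10 mg/kg from week 4. Blood sampled weekly; necropsy on day 85.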
substance,measurement,setting,value
"ISIS 416858: MOE gapmer, nucleobases 1275 to 1318 of SEQ ID NO: 1 (Table 8) (antisense ACGGCATTGGTGCACAGTTT; MOE gapmer, wing and gap sizes not given here)",MCH,Day 64,22 pg
same,MCH,Day 71,22 pg
same,MCH,Day 78,23 pg
same,MCH,Day 85,22 pg
same,basophils,day 8,0.3%
same,eosinophils,day 8,0.3%
same,lymphocytes,day 8,45%
same,monocytes,day 8,2.7%
same,neutrophils,day 8,51%
same,platelet count,day 8,391000 µL⁻¹
same,reticulocytes,day 8,1.2%
same,MCH,day 8,23 pg
same,MCHC,day 8,30 g/dL
same,MCV,day 8,77 fL
same,RBC count,day 8,5.6e+06 µL⁻¹
same,WBC count,day 8,12000 µL⁻¹
same,hematocrit,day 8,43%
same,hemoglobin,day 8,12.8 g/dL
same,basophils,day 15,0.2%
same,eosinophils,day 15,0.3%
same,lymphocytes,day 15,43%
same,monocytes,day 15,2.2%
same,neutrophils,day 15,54%
same,platelet count,day 15,400000 µL⁻¹
same,reticulocytes,day 15,1.6%
same,MCH,day 15,23 pg
same,MCHC,day 15,31 g/dL
same,MCV,day 15,74 fL
same,RBC count,day 15,5.4e+06 µL⁻¹
same,WBC count,day 15,11000 µL⁻¹
same,hematocrit,day 15,40%
same,hemoglobin,day 15,12.6 g/dL
same,basophils,day 22,0.2%
same,eosinophils,day 22,0.6%
same,lymphocytes,day 22,49%
same,monocytes,day 22,2.8%
same,neutrophils,day 22,47%
same,platelet count,day 22,316000 µL⁻¹
same,reticulocytes,day 22,1.3%
same,MCH,day 22,24 pg
same,MCHC,day 22,30 g/dL
same,MCV,day 22,77 fL
same,RBC count,day 22,5.3e+06 µL⁻¹
same,WBC count,day 22,11000 µL⁻¹
same,hematocrit,day 22,41%
same,hemoglobin,day 22,12.4 g/dL
same,basophils,day 29,0.2%
same,eosinophils,day 29,0.6%
same,lymphocytes,day 29,51%
same,monocytes,day 29,3.8%
same,neutrophils,day 29,43%
same,platelet count,day 29,336000 µL⁻¹
same,reticulocytes,day 29,1.5%
same,MCH,day 29,23 pg
same,MCHC,day 29,30 g/dL
same,MCV,day 29,78 fL
same,RBC count,day 29,5.3e+06 µL⁻¹
same,WBC count,day 29,12000 µL⁻¹
same,hematocrit,day 29,41%
same,hemoglobin,day 29,12.3 g/dL
same,basophils,day 36,0.3%
same,eosinophils,day 36,0.4%
same,lymphocytes,day 36,49%
same,monocytes,day 36,2.9%
same,neutrophils,day 36,47%
same,platelet count,day 36,371000 µL⁻¹
same,reticulocytes,day 36,1.6%
same,MCH,day 36,23 pg
same,MCHC,day 36,31 g/dL
same,MCV,day 36,75 fL
same,RBC count,day 36,5.5e+06 µL⁻¹
same,WBC count,day 36,12000 µL⁻¹
same,hematocrit,day 36,40%
same,hemoglobin,day 36,12.6 g/dL
same,basophils,day 43,0.3%
same,eosinophils,day 43,0.3%
same,lymphocytes,day 43,51%
same,monocytes,day 43,3.1%
same,neutrophils,day 43,45%
same,platelet count,day 43,342000 µL⁻¹
same,reticulocytes,day 43,1.3%
same,MCH,day 43,23 pg
same,MCHC,day 43,31 g/dL
same,MCV,day 43,74 fL
same,RBC count,day 43,5.5e+06 µL⁻¹
same,WBC count,day 43,11000 µL⁻¹
same,hematocrit,day 43,40%
same,hemoglobin,day 43,12.4 g/dL
same,basophils,day 50,0.4%
same,eosinophils,day 50,0.4%
same,lymphocytes,day 50,48%
same,monocytes,day 50,4.6%
same,neutrophils,day 50,46%
same,platelet count,day 50,331000 µL⁻¹
same,reticulocytes,day 50,1.5%
same,MCH,day 50,23 pg
same,MCHC,day 50,30 g/dL
same,MCV,day 50,76 fL
same,RBC count,day 50,5.5e+06 µL⁻¹
same,WBC count,day 50,13000 µL⁻¹
same,hematocrit,day 50,41%
same,hemoglobin,day 50,12.2 g/dL
same,basophils,day 57,0.2%
same,eosinophils,day 57,0.3%
same,lymphocytes,day 57,51%
same,monocytes,day 57,3.8%
same,neutrophils,day 57,44%
same,platelet count,day 57,333000 µL⁻¹
same,reticulocytes,day 57,1.4%
same,MCH,day 57,22 pg
same,MCHC,day 57,31 g/dL
same,MCV,day 57,74 fL
same,RBC count,day 57,5.6e+06 µL⁻¹
same,WBC count,day 57,13000 µL⁻¹
same,hematocrit,day 57,41%
same,hemoglobin,day 57,12.7 g/dL
same,basophils,day 64,0.4%
same,eosinophils,day 64,0.4%
same,lymphocytes,day 64,56%
same,monocytes,day 64,4.4%
same,neutrophils,day 64,37%
same,platelet count,day 64,295000 µL⁻¹
same,reticulocytes,day 64,1.0%
same,MCHC,day 64,30 g/dL
same,MCV,day 64,73 fL
same,RBC count,day 64,5.7e+06 µL⁻¹
same,WBC count,day 64,12000 µL⁻¹
same,hematocrit,day 64,42%
same,hemoglobin,day 64,12.8 g/dL
same,basophils,day 71,0.4%
same,eosinophils,day 71,0.9%
same,lymphocytes,day 71,66%
same,monocytes,day 71,4.9%
same,neutrophils,day 71,26%
same,platelet count,day 71,286000 µL⁻¹
same,reticulocytes,day 71,1.3%
same,MCHC,day 71,30 g/dL
same,MCV,day 71,75 fL
same,RBC count,day 71,5.6e+06 µL⁻¹
same,WBC count,day 71,13000 µL⁻¹
same,hematocrit,day 71,42%
same,hemoglobin,day 71,12.7 g/dL
same,basophils,day 78,0.4%
same,eosinophils,day 78,0.5%
same,lymphocytes,day 78,54%
same,monocytes,day 78,4.9%
same,neutrophils,day 78,39%
same,platelet count,day 78,262000 µL⁻¹
same,reticulocytes,day 78,1.2%
same,MCHC,day 78,32 g/dL
same,MCV,day 78,72 fL
same,RBC count,day 78,5.4e+06 µL⁻¹
same,WBC count,day 78,11000 µL⁻¹
same,hematocrit,day 78,39%
same,hemoglobin,day 78,12.4 g/dL
same,basophils,day 85,0.3%
same,eosinophils,day 85,0.6%
same,lymphocytes,day 85,52%
same,monocytes,day 85,6.1%
same,neutrophils,day 85,40%
same,platelet count,day 85,267000 µL⁻¹
same,reticulocytes,day 85,1.3%
same,MCHC,day 85,31 g/dL
same,MCV,day 85,72 fL
same,RBC count,day 85,5.5e+06 µL⁻¹
same,WBC count,day 85,11000 µL⁻¹
same,hematocrit,day 85,39%
same,hemoglobin,day 85,11.9 g/dL
same,basophils,day −5,0.3%
same,eosinophils,day −5,1.3%
same,lymphocytes,day −5,49%
same,monocytes,day −5,2.8%
same,neutrophils,day −5,46%
same,platelet count,day −5,463000 µL⁻¹
same,reticulocytes,day −5,0.9%
same,MCH,day −5,23 pg
same,MCHC,day −5,31 g/dL
same,MCV,day −5,75 fL
same,RBC count,day −5,5.6e+06 µL⁻¹
same,WBC count,day −5,14000 µL⁻¹
same,hematocrit,day −5,42%
same,hemoglobin,day −5,13.2 g/dL
same,basophils,day −14,0.3%
same,eosinophils,day −14,0.7%
same,lymphocytes,day −14,58%
same,monocytes,day −14,2.8%
same,neutrophils,day −14,37%
same,platelet count,day −14,419000 µL⁻¹
same,reticulocytes,day −14,1.0%
same,MCH,day −14,24 pg
same,MCHC,day −14,31 g/dL
same,MCV,day −14,77 fL
same,RBC count,day −14,5.6e+06 µL⁻¹
same,WBC count,day −14,14000 µL⁻¹
same,hematocrit,day −14,43%
same,hemoglobin,day −14,13.2 g/dL
